Measurements as given in patent publication US20090023589A1, “METHODS FOR IDENTIFYING CONDITIONS AFFECTING A CELL STATE” (priority 2004, published 2009).

Test system: HL-60 cells
Experiment: Surface marker expression profile of HL-60 cells after combinatorial differentiation (flow cytometry, percent positive cells, hierarchical clustering)
Assay type: cell-based
Conditions: for expression of cell surface marker CD 125w: med concentrations, sodium butyrate at pH 7.8; for monocyte signature profile (CD 14hi, CD11b/Mac-1hi, CD 13+, CD66b-): binary and ternary combinations, clustering on myeloid markers
Protocol: HL-60 cells were used to study what factors are involved in cellular differentiation. At day 0, the cells were plated in wells using a 96 well plate at a seeding density of approximately 60,000 cells, appropriate cell media was added. […] Cells were induced with the factors in Table 1 and 2. At day 4, the cells were harvested and labeled with antibody (see Table 3) for cytometry. The labeling was accomplished by washing the cells with PBS (phosphate buffered saline). Then gamma globulin was used to block non-specific binding sites. The gamma globulin treatment lasted for approximately 20 minutes at room temperatures on a rocker shaker.
The antibody cocktail concentration for each antibody used was based on manufacturer's instruction adjusted for final cell number. The antibody cocktail was incubated for 30 minutes at room temperature on rocking shaker. Following the incubation, the cells were washed using PBS. The cells were resuspended in 1% ultrapure methanol free formaldehyde and refrigerated until analysis. The cells were analyzed using a BD FACSCalibur equipped with a high throughput sampler (HTS) which has a dual laser excitation line: argon (488 nm) and red diode (635 nm).
The positive control for these experiments was 100 nm vitamin D3 plus CD 14 antibody. The negative controls were (1) untreated cells plus antibody cocktails located on the plates; and (2) fresh untreated cells plus antibody cocktails located on separate plates.
HL-60 cells were exposed to five well studied chemical differentiation factors (dimethylsulfoxide (DMSO), Vitamin D3, Phorbol-12-myristate-13-acetate (PMA), Sodium butyrate+pH 7.8, and all-Trans Retinoic Acid (ATRA)) known to promote differentiation along three distinct pathways (neutrophil, monocyte, eosinophil/basophil) within the myeloid lineage. Differentiation was induced by creating binary and ternary five factor combinations using the five factors at three concentrations for the binary experiment and two concentrations for the ternary experiment.
To observe experiment-wide profiles of marker expression, we used the percentage of positive cells for all markers and constructed a profile for each combinatorial treatment. Hierarchical clustering orders the data so that the most similar profile are next to each other in the plot.
To refine cluster analysis with relevant information, one can choose specific cell surface markers. In order to test the validity of the experiment, we clustered based on cell surface markers known to be expressed in the myeloid lineage: CD66b, CD11b/Mac-1, CD13+CD 14 (FIG. 8 a,b). Cells which have differentiated toward the monocytic lineage have a CD 14^hi, CD11b/Mac-1^hi, CD 13^+, CD66b^− expression profile.

Row | SMILES | expression of cell surface marker CD 125w | monocyte signature profile (CD 14hi, CD11b/Mac-1hi, CD 13+, CD66b-)
1 | C[S+](C)[O-] [DMSO, dimethylsulfoxide] | neither DMSO^med nor sodium butyrate^med, pH 7.8 alone produced cells positive for CD 125w | –
2 | CCCCCCCCCCCCCC(=O)O[C@@H]1[C@@H](C)[C@@]2(O)[C@@H](C=C(CO)C[C@]3(O)C(=O)C(C)=C[C@@H]23)[C@@H]2C(C)(C)[C@]12OC(C)=O [PMA, Phorbol-12-myristate-13-acetate] | – | contributed to the monocyte signature profile
3 | C=C1CC[C@H](O)C/C1=C/C=C1\CCC[C@]2(C)[C@@H]([C@H](C)CCCC(C)C)CC[C@@H]12 [Vitamin D3] | – | contributed to the monocyte signature profile
4 | CCCC(=O)[O-].[Na+] [sodium butyrate, Sodium butyrate] | neither DMSO^med nor sodium butyrate^med, pH 7.8 alone produced cells positive for CD 125w | –
